Where two headings read alike, the source gives them in different places.
Tests used:
[1] = target: T1, BCRP (Homo sapiens, UniProt Q9UNQ0); assay: Reversal of BCRP-mediated topotecan resistance in HEK293/R2 cells (cell proliferation assay); details: triazole dimers, anti vs syn; cell line not given (Table 1)
T1 sequence (Q9UNQ0 1-655): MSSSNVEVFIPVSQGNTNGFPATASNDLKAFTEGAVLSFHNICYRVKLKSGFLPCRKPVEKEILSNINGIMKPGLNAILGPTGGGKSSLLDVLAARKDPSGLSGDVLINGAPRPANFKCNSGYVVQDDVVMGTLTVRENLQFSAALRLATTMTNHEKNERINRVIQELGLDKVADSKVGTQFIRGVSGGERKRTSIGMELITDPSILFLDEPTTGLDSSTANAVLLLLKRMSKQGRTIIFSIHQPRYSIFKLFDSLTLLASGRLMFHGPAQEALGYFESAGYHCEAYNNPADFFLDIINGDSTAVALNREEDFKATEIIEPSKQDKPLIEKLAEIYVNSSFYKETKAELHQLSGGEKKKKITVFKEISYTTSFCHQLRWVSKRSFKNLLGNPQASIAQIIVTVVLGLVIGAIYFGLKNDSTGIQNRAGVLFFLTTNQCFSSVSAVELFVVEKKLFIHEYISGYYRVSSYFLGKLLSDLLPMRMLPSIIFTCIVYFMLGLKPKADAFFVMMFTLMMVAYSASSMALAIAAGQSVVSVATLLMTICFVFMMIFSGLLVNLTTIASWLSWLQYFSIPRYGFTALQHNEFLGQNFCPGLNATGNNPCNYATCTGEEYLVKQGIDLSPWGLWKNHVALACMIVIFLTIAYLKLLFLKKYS

[2] = target: T1, BCRP; assay: cell-based
[3] = target: T2, MRP1 (Homo sapiens, UniProt P33527); assay: cell-based
[4] = in vitro; details: mouse
[5] = target: T2, MRP1; assay: Reversal of MRP1-mediated vincristine resistance in 2008/MRP1 cells (cell proliferation assay); details: (IC50 towards L929 or Raw264.7)/(EC50 for reversing drug resistance)
[6] = target: T2, MRP1; assay: Reversal of MRP1-mediated DOX resistance in 2008/MRP1 cells (cell proliferation assay); details: for DOX resistance of 2008/MRP1 Therapeutic index: (IC50 towards L929 or Raw264.7)/(EC50 for reversing drug resistance)
[7] = system: P-gp, MRP1 and BCRP transporters; assay: Selectivity for ABC transporters, determined from % of reversion (Tables 1 and 2); format: cell-based, human; details: determined from % of reversion in Table 1 (>80% strongly, 79-50% moderately selective)
Summary of the method: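 Selectivity assigned from % reversion of resistance mediated by P-gp, MRP1 and BCRP. Over 80% reversion counts as strongly selective, 79-50% as moderately selective. Compounds are classed as mono-, dual- or multi-selective.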

[8] = target: T3, P-gp (Homo sapiens, UniProt P08183); assay: cell-based
[9] = target: T2, MRP1; assay: cell-based; remark: listed apart in the source
[10] = system: 2008/MRP1; assay: Cell proliferation assay, 2008/MRP1
[11] = target: T3, P-gp; details: mouse (L929 or Raw264.7) and human (LCC6MDR), 5 days
[12] = target: T1, BCRP; assay: Reversal of BCRP-mediated topotecan resistance in MCF7-MX100 cells (cell proliferation assay); details: (IC50 towards L929 or Raw264.7)/(EC50 for reversing drug resistance)

T3 sequence (P08183 whole entry): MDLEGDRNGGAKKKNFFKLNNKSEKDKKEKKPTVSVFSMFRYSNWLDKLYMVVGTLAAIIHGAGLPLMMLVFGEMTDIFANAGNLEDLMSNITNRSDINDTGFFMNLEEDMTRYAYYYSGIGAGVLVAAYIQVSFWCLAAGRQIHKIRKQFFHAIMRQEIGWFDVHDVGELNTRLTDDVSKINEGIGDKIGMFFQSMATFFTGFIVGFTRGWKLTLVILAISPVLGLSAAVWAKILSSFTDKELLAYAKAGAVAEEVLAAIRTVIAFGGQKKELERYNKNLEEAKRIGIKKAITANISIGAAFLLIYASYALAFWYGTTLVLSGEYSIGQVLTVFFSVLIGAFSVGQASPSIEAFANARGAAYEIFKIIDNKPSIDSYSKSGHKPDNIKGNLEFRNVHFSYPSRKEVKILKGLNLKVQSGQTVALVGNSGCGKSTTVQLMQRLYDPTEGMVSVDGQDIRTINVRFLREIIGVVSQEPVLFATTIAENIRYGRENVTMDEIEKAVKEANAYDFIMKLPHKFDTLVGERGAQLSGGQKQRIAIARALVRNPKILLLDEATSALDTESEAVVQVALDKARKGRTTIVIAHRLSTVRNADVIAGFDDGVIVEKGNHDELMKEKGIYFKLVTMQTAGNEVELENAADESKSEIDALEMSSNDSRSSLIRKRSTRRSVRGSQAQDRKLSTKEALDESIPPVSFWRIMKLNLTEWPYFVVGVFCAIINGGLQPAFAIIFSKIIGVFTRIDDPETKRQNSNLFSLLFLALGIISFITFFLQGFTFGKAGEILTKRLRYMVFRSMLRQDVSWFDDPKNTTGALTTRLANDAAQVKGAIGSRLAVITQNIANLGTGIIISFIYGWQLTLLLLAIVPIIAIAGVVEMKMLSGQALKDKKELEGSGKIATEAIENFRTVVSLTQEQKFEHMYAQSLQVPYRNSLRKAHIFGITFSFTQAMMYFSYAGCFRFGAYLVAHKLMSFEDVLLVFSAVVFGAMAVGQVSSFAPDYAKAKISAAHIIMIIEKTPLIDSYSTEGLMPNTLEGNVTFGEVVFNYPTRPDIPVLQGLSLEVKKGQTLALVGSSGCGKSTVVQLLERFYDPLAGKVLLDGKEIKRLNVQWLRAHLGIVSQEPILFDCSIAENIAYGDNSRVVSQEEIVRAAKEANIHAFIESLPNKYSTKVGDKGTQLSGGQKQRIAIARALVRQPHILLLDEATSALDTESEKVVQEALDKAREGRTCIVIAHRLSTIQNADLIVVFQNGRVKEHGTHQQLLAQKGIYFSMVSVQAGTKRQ
T2 sequence (P33527 whole entry): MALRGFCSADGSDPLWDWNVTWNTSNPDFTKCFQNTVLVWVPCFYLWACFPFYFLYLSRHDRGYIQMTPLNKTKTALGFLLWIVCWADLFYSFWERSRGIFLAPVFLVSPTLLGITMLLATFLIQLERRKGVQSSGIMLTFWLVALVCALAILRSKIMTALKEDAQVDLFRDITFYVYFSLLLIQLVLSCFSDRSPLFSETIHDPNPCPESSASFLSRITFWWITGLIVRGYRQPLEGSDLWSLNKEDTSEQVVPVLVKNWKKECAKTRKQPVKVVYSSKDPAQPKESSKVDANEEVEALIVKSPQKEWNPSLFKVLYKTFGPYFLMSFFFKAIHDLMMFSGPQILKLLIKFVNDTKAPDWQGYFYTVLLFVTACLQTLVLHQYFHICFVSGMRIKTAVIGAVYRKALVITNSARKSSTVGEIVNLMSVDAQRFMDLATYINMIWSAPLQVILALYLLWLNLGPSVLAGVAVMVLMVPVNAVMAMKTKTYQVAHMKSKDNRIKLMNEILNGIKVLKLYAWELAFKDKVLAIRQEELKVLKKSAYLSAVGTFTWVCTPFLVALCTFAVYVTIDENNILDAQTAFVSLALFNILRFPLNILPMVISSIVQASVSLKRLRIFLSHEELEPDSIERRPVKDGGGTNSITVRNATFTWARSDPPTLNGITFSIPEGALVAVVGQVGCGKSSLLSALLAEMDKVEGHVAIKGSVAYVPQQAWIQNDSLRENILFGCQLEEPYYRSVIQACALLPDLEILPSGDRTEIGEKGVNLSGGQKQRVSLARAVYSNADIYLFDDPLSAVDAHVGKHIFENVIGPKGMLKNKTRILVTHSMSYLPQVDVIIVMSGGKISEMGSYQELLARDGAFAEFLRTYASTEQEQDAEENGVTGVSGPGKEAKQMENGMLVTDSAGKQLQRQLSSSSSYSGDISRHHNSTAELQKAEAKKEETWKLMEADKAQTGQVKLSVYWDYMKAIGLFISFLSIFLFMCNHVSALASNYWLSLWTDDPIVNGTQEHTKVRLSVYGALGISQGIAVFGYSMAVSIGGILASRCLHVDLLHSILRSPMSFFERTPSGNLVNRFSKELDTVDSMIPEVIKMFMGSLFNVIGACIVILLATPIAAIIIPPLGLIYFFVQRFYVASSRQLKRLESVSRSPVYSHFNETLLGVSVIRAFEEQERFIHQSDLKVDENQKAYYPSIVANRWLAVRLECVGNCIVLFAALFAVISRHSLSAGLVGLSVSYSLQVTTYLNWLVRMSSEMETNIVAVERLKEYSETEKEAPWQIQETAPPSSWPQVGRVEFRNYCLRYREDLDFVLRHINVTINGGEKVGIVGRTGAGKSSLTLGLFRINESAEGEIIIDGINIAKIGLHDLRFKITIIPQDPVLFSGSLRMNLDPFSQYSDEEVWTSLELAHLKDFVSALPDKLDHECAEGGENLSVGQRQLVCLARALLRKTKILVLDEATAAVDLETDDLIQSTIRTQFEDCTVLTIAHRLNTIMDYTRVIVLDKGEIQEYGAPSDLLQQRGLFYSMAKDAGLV

Row | SMILES | EC50 [3] [µM] | IC50 at 5 days [4] [µM] | Selectivity for ABC transporters (P-gp, MRP1, BCRP) [7] | EC50 [8] [µM] | Vincristine resistance of 2008/MRP1 Therapeutic index [5] | DOX resistance of 2008/MRP1 Therapeutic index [6] | further results
1 | Cc1ccc2oc(-c3ccc(OCCCCc4cnnn4CCOCCOc4ccc(-c5cc(=O)c6ccccc6o5)cc4)cc3)cc(=O)c2c1 [syn-Ac5Az1, 6-Methyl-2-(4-(4-(1-(2-(2-(4-(4-oxo-4H-chromen-2-yl)phenoxy)ethoxy)ethyl)-1H-1,2,3-triazol-5-yl)butoxy)phenyl)-4H-chromen-4-one] |  |  |  |  |  |  | Relative fold (RF), BCRP-modulating activity [1]: 11.6
2 | Cc1ccc2oc(-c3ccc(OCCCCc4cn(CCOCCOc5ccc6c(=O)cc(-c7ccccc7)oc6c5)nn4)cc3)cc(=O)c2c1 [Ac5Az11, 6-Methyl-2-(4-(4-(1-(2-(2-((4-oxo-2-phenyl-4H-chromen-7-yl)oxy)ethoxy)ethyl)-1H-1,2,3-triazol-4-yl)butoxy)phenyl)-4H-chromen-4-one] | 0.135 ± 0.01 | > 100 |  | 0.16 ± 0.021 |  |  | 
3 | Cc1ccc2oc(-c3ccc(OCCCCc4cnnn4CCOCCOCCOc4ccc(-c5cc(=O)c6ccccc6o5)cc4)cc3)cc(=O)c2c1 [syn-Ac5Az2, 6-Methyl-2-(4-(4-(1-(2-(2-(2-(4-(4-oxo-4H-chromen-2-yl)phenoxy)ethoxy)ethoxy)ethyl)-1H-1,2,3-triazol-5-yl)butoxy)phenyl)-4H-chromen-4-one] |  |  |  |  |  |  | Relative fold (RF), BCRP-modulating activity [1]: 9.3; MRP1 inhibitory activity of syn-isomer compared with anti-isomer ([6]; syn vs anti triazole regioisomer): poorer MRP1 inhibitory activity than the anti-isomer Ac5Az2
4 | Cc1ccc2oc(-c3ccc(OCCCCc4cn(CCOCCOCCOc5ccc(-c6cc(=O)c7ccccc7o6)cc5)nn4)cc3)cc(=O)c2c1 [Ac5Az2, 6-Methyl-2-(4-(4-(1-(2-(2-(2-(4-(4-oxo-4H-chromen-2-yl)phenoxy)ethoxy)ethoxy)ethyl)-1H-1,2,3-triazol-4-yl)butoxy)phenyl)-4H-chromen-4-one] |  |  | mono-MRP1 selectivity |  |  |  | Relative fold (RF), BCRP-modulating activity [1]: 13.5
5 | CC[C@]1(O)C[C@H]2CN(CCc3c([nH]c4ccccc34)[C@@](C(=O)OC)(c3cc4c(cc3OC)N(C=O)[C@H]3[C@@](O)(C(=O)OC)[C@H](OC(C)=O)[C@]5(CC)C=CCN6CC[C@]43[C@@H]65)C2)C1 [vincristine] |  |  |  |  |  |  | IC50 ([10]; Homo sapiens, 2008/MRP1, read-out: IC50 of anticancer drug, 2008/MRP1): 0.123 µM; fold more resistance of 2008/MRP1 than parental 2008/P ([10]; without modulator): about 2.4 fold
6 | Cc1ccc2oc(-c3ccc(OCCCCc4cn(CCOCCOCCOc5ccc6c(=O)cc(-c7ccccc7)oc6c5)nn4)cc3)cc(=O)c2c1 [Ac5Az12, 6-Methyl-2-(4-(4-(1-(2-(2-(2-((4-oxo-2-phenyl-4H-chromen-7-yl)oxy)ethoxy)ethoxy)ethyl)-1H-1,2,3-triazol-4-yl)butoxy)phenyl)-4H-chromen-4-one] |  | > 100 | mono-BCRP selectivity | 0.141 ± 0.001 | >1081.1 | >759.3 | Paclitaxel resistance of LCC6MDR Therapeutic index [11]: >709.2; Topotecan resistance of MCF7-MX100 Therapeutic index [12]: >1600.0
7 | Cc1ccc2oc(-c3ccc(OCCOCCOCCn4cc(CCCCOc5ccc6c(=O)cc(-c7ccccc7)oc6c5)nn4)cc3)cc(=O)c2c1 [Ac12Az3, 6-Methyl-2-(4-(2-(2-(2-(4-(4-((4-oxo-2-phenyl-4H-chromen-7-yl)oxy)butyl)-1H-1,2,3-triazol-1-yl)ethoxy)ethoxy)ethoxy)phenyl)-4H-chromen-4-one] |  | > 50 | multi-selectivity towards P-gp, MRP1 and BCRP transporters | 0.19 | >613.5 | >333.8 | Paclitaxel resistance of LCC6MDR Therapeutic index [11]: >263.2
8 | O=c1cc(-c2ccccc2)oc2cc(OCCCCc3cn(CCOCCOCCOc4ccc5c(=O)cc(-c6ccccc6)oc5c4)nn3)ccc12 [Ac12Az12, 7-(2-(2-(2-(4-(4-((4-Oxo-2-phenyl-4H-chromen-7-yl)oxy)butyl)-1H-1,2,3-triazol-1-yl)ethoxy)ethoxy)ethoxy)-2-phenyl-4H-chromen-4-one] | 0.168 | > 100 | MRP1- and BCRP-dual selectivity |  | >595.2 | >740.7 | EC50 [2]: 0.034 µM

The next lines start with results.

Row | EC50 [3] [µM] | IC50 at 5 days [4] [µM] | Selectivity for ABC transporters (P-gp, MRP1, BCRP) [7] | EC50 [8] [µM] | SMILES | Vincristine resistance of 2008/MRP1 Therapeutic index [5] | DOX resistance of 2008/MRP1 Therapeutic index [6] | further results
9 | 0.535 ± 0.0626 | > 100 | MRP1- and BCRP-dual selectivity |  | Cc1ccc2oc(-c3ccc(OCCOCCOCCn4cc(CN(Cc5ccccc5)Cc5cn(CCOCCOCCOc6ccc(-c7cc(=O)c8cc(C)ccc8o7)cc6)nn5)nn4)cc3)cc(=O)c2c1 [Ac15Az3, 2,2′-((((((((4,4′-((Benzylazanediyl)bis(methylene))bis(1H-1,2,3-triazole-4,1-diyl))bis(ethane-2,1-diyl))bis(oxy))bis(ethane-2,1-diyl))bis(oxy))bis(ethane-2,1-diyl))bis(oxy))bis(4,1-phenylene))bis(6-methyl-4H-chromen-4-one)] | >186.9 | >210.5 | EC50 [2]: 0.036 ± 0.004 µM
10 | 0.55 | > 100 | mono-MRP1 selectivity |  | O=c1cc(-c2ccc(OCCOCCOCCn3cc(CN(Cc4ccccc4)Cc4cn(CCOCCOCCOc5ccc(-c6cc(=O)c7ccccc7o6)cc5)nn4)nn3)cc2)oc2ccccc12 [Ac15Az2, 2,2′-((((((((4,4′-((Benzylazanediyl)bis(methylene))bis(1H-1,2,3-triazole-4,1-diyl))bis(ethane-2,1-diyl))bis(oxy))bis(ethane-2,1-diyl))bis(oxy))bis(ethane-2,1-diyl))bis(oxy))bis(4,1-phenylene))bis(4H-chromen-4-one)] | >181.8 | >188.7 | EC50 [9]: 0.53 ± 0.12 µM
11 | 0.169 | > 100 | MRP1- and BCRP-dual selectivity |  | O=c1cc(-c2ccccc2)oc2cc(OCCCCc3cn(CCOCCOc4ccc5c(=O)cc(-c6ccccc6)oc5c4)nn3)ccc12 [Ac12Az11, 7-(2-(2-(4-(4-((4-Oxo-2-phenyl-4H-chromen-7-yl)oxy)butyl)-1H-1,2,3-triazol-1-yl)ethoxy)ethoxy)-2-phenyl-4H-chromen-4-one] | >591.7 | >877.2 | EC50 [2]: 0.03 µM
12 |  | > 100 | Pgp- and BCRP-dual selectivity | 0.34 | O=c1cc(-c2ccccc2)oc2cc(OCCOCc3cn(CCOCCOc4ccc(-c5oc6ccccc6c(=O)c5OCc5ccccc5)cc4)nn3)ccc12 [Ac13Az10, 3-(Benzyloxy)-2-(4-(2-(2-(4-((2-((4-oxo-2-phenyl-4H-chromen-7-yl)oxy)ethoxy)methyl)-1H-1,2,3-triazol-1-yl)ethoxy)ethoxy)phenyl)-4H-chromen-4-one] |  |  | Paclitaxel resistance of LCC6MDR Therapeutic index [11]: >294.1; Topotecan resistance of MCF7-MX100 Therapeutic index [12]: >845.3
13 |  | > 100 | Pgp- and BCRP-dual selectivity | 0.33 | O=c1cc(-c2ccccc2)oc2cc(OCCCCc3cn(CCOCCOc4ccc(-c5oc6ccccc6c(=O)c5OCc5ccccc5)cc4)nn3)ccc12 [Ac12Az10, 3-(Benzyloxy)-2-(4-(2-(2-(4-(4-((4-oxo-2-phenyl-4H-chromen-7-yl)oxy)butyl)-1H-1,2,3-triazol-1-yl)ethoxy)ethoxy)phenyl)-4H-chromen-4-one] |  |  | Paclitaxel resistance of LCC6MDR Therapeutic index [11]: >303.0; Topotecan resistance of MCF7-MX100 Therapeutic index [12]: >2924.0
14 |  | > 100 |  | 0.157 | Cc1ccc2oc(-c3ccc(OCCCCc4cn(CCOCCOc5ccc(-c6cc(=O)c7cc(F)ccc7o6)cc5)nn4)cc3)cc(=O)c2c1 [Ac5Az7, 6-Fluoro-2-(4-(2-(2-(4-(4-(4-(6-methyl-4-oxo-4H-chromen-2-yl)phenoxy)butyl)-1H-1,2,3-triazol-1-yl)ethoxy)ethoxy)phenyl)-4H-chromen-4-one] |  |  | 
